Source: ChEMBL document CHEMBL1123908, “Endoperoxides as potential antimalarial agents” (J Med Chem, 1987)

Legend:
Assay type in all cases: functional, organism-based
Mus musculus [1] = test: Blood schizonticidal activity against Plasmodium berghei in mice (Mus musculus) at the dose of 160 mg/kg; Inactive; design: dose 160 mg/kg
Mus musculus [2] = test: Blood schizonticidal activity against Plasmodium berghei in mice (Mus musculus) at the dose of 640 mg/kg; Inactive; design: dose 640 mg/kg
Mus musculus [3] = test: Blood schizonticidal activity against Plasmodium berghei in mice (Mus musculus) at the dose of 40 mg/kg; Inactive; design: dose 40 mg/kg

CC12CCC(OC(=O)c3ccccc3)C(C)(C)C13CCC(C2)OO3 (configuration not stated)
Not Active: Activity call (Mus musculus [1]) | Activity (active/inactive) (Mus musculus [2]) | Blood schizonticidal activity (Mus musculus [3])

CCCCOC(=O)OC1CCC2(C)CC3CCC2(OO3)C1(C)C (configuration not stated)
Not Active: Activity call (Mus musculus [1]) | Activity (active/inactive) (Mus musculus [2]) | Blood schizonticidal activity (Mus musculus [3])

CC(=O)OC1CCC2(C)CC3C=C[C@]2(OO3)C1(C)C (some centres not stated)
Not Active: Activity call (Mus musculus [1]) | Activity (active/inactive) (Mus musculus [2]) | Blood schizonticidal activity (Mus musculus [3])

CC12CCC(O)C(C)(C)C13CCC(C2)OO3 (configuration not stated)
Not Active: Activity call (Mus musculus [1]) | Activity (active/inactive) (Mus musculus [2]) | Blood schizonticidal activity (Mus musculus [3])

CC12CCC(OC(=O)c3ccccc3)C(C)(C)[C@@]13C=CC(C2)OO3 (some centres not stated)
Not Active: Activity call (Mus musculus [1]) | Activity (active/inactive) (Mus musculus [2]) | Blood schizonticidal activity (Mus musculus [3])

CC(C)CCCC(C)[C@H]1CC[C@H]2C3CC=C4C[C@@H](OC(=O)OC5CCC6(C)CC7C=CC6(OO7)C5(C)C)CCC4(C)[C@H]3CCC12C (some centres not stated)
Not Active: Activity call (Mus musculus [1]) | Activity (active/inactive) (Mus musculus [2]) | Blood schizonticidal activity (Mus musculus [3])

CC12CCC(O)C(C)(C)[C@@]13C=CC(C2)OO3 (some centres not stated)
Not Active: Activity call (Mus musculus [1]) | Activity (active/inactive) (Mus musculus [2]) | Blood schizonticidal activity (Mus musculus [3])

CC(=O)OC(C)CCC12OO[C@@H](C=C1C)CC2(C)C (some centres not stated)
Not Active: Activity call (Mus musculus [1]) | Activity (active/inactive) (Mus musculus [2]) | Blood schizonticidal activity (Mus musculus [3])

CC(=O)OC1CCC2(C)CC3CCC2(OO3)C1(C)C (configuration not stated)
Not Active: Activity call (Mus musculus [1]) | Activity (active/inactive) (Mus musculus [2]) | Blood schizonticidal activity (Mus musculus [3])
